Data as given in patent US7482008B1, “Human T cell reactive feline protein (TRFP) isolated from house dust and uses therefor” (Merck Patent GmbH, priority 1989, dated 2009).

Columns and labels:
[1] = tested on: T cells from cat-allergic patients; assay: Secondary proliferation assay of T cells primed with TRFP, peptide YXZ or peptide YZX; format: cell-based, human
Experimental: The human cat allergic T cell response to peptides produced as above was examined. […] Peptide YZX was cleaved with thrombin as described in Example 25. Viable cells were then purified by Ficoll-Hypaque centrifugation and cultured for 2 additional weeks in RPMI-1640/5% AB serum containing 5 units recombinant human IL-2/ml and 5 units recombinant human IL-4/ml. The resting T cells were then tested in a secondary proliferation assay using a 96 well microtiter plate to assess T cell responses to various TRFP proteins or peptides (TRFP antigens). For assay, 2×10^4 resting T cells were cultured for 3 days at 37° C. in the presence of 2×10^4 autologous Epstein-Barr virus transformed B cells (25,000 Rads) as antigen presenting cells with various concentrations of antigen in 200 μl per well. Each well then received 1 μCi tritiated thymidine for 16 hours. The counts incorporated were collected onto glass fiber filters and processed for liquid scintillation counting. The stimulation indices for responses to each antigen were then calculated as the maximum CPM in response to antigen divided by the medium control CPM. A stimulation index of 2.5 was considered to be a positive T cell response. A summary of the results of 3 such experiments (patients 522, 519, and 386 is shown in FIG. 35a, FIG. 35b and FIG. 35c). As compared to the experiments shown in FIGS. 35a and 35b in the experiment shown in […], Fel-1.4 (chain 1, amino acid residues 6-17) was substituted for Fel-1.2 (chain 1, amino acid residues 1-17) and Fel-33.3 (chain 2, amino acid residues 26-40) was substituted for Fel-18 (chain 2, amino acid residues 23-48) in order to more closely resemble the constituent amino acids of peptides X and Z. In addition, in this experiment one peptide derived from the Y-Z junction of peptide YZX (amino acid residues 50-55 from chain 1 of TRFP and amino acid residues 14-19 from chain 2 of TRFP) and one peptide derived from the Z-X junction of peptide YZX (amino acid residues 34-39 of chain 2 of TRFP and amino acid residues 7-12 of chain 1 of TRFP) were synthesized and tested. These junction peptides were produced in order to determine whether these areas of peptide YZX produce a non-native epitope when formed in the peptide.

[2] = tested on: T cells from cat allergic patients; assay: T cell proliferation of TRFP-primed T cells from cat allergic patients (tritiated thymidine), Example 5 Part A; format: cell-based, human; settings: for secondary T cell response of patient 131: FIG. 8
Experimental: Peripheral blood mononuclear cells (PBMC) were purified from 60 ml of heparinized blood from cat allergic patients. PBMC were subsequently treated as described below, although in individual cases, the length of time of cultivation with IL-2 and/or IL-4 and the specific peptides used for stimulation varied.
10 ml of PBMC from patient 131 at 10^6 /ml were cultured at 37° C. for 7 days in the presence of 5 μg purified TRFP/ml RPMI-1640 supplemented with 5% pooled human AB serum. Viable cells were purified by Ficoll-Hypaque centrifugation and cultured for three weeks at 5 units recombinant human IL-2/ml and 5 units recombinant human IL-4/ml. The resting T cells were then restimulated (secondary) with 5 μg TRFP at 2×10^5/ml in the presence of irradiated (3500 Rads) autologous PBMC at a concentration of 5×10^5/ml for three days, purified by Ficoll-Hypaque centrifugation and grown in 5 units IL-2 and 5 units IL-4/ml for two weeks. For assay, 2×10^4 resting secondary T cells were restimulated (tertiary) in the presence of 5×10^4 irradiated (3500 Rads) autologous PBMC or 2×10^4 transformed B cells (20,000 Rads) with various concentrations of allergens or their fragments in a volume of 200 microliters in a 96-well round bottom assay plates for 3 days. Each well then received 1 μCurie tritiated (methyl) thymidine for 16 hours. The counts incorporated were collected onto glass fiber filters and processed for liquid scintillation counting.
Antigens used: T cell reactive feline protein (TRFP), Hollister-Stier cat epithelium skin test reagent (CST), IPC ragweed pollen extract (pollen), and synthetic peptides derived from TRFP protein sequence (See FIGS. 6 and 7). Positive T cell proliferation is for these experiments was considered to be greater than 2.5 times the media control (T cells and antigen presenting cells alone).
Alternatively, PBMC were treated as follows: The primary stimulated cells were cultured in IL-2/IL-4 for two weeks. The resting T cells derived from this culture were tested in a secondary assay with some, but not all, of the above allergens. […] This type of epitope analysis has allowed the definition of T cell epitopes present in TRFP.

[3] = patient 386, T cells primed with YZX
[4] = patient 522, T cells primed with YXZ
[5] = Table 2, chain #1 TRFP peptides, average SI of responding patients multiplied by percent of patients with positive response (SI >2.5)
[6] = Table 2, chain #1 TRFP peptides, average cpm with antigen divided by cpm of T cells and APC alone, responding patients
[7] = patient 522, T cells primed with native TRFP, SI 2.5 positive
[8] = Table 3, chain #2 TRFP peptides

DVDLFLTGTPDEYVEQV [Fel 2, TRFP chain 1 amino acids 9-25]
T cell response [1, 3]: respond at a similar level or better
T cell response [1, 4]: respond at a similar level or better
PI [2, 5]: 416
SI [2, 6]: 7.3

EITPAVKRDVDLFLTGT [Fel 1, TRFP chain 1 amino acids 1-17, amino acid 3 changed to T]
secondary T cell response of patient 131 [2]: respond
PI [2, 5]: 392
SI [2, 6]: 5.6

Fel 1-4: TRFP chain 1 amino acids 6-17 (VKRDVDLFLTGT; UniProt P30438 28-39, looked up, fragment)
PI [2, 5]: 816
SI [2, 6]: 9.6

Fel 1-5: TRFP chain 1 amino acids 8-17 (RDVDLFLTGT; UniProt P30438 30-39, looked up, fragment)
PI [2, 5]: 286
SI [2, 6]: 5.2

Fel 4-1: TRFP chain 1 amino acids 37-52 (NARILKNCVDAKMTEE; UniProt P30438 59-74, looked up, fragment)
PI [2, 5]: 822
SI [2, 6]: 9.9

Fel 4-2: TRFP chain 1 amino acids 37-49 (NARILKNCVDAKM; UniProt P30438 59-71, looked up, fragment)
PI [2, 5]: 378
SI [2, 6]: 6.2

Fel 8: TRFP chain 1 amino acids 1-30 (EICPAVKRDVDLFLTGTPDEYVEQVAQYKA; UniProt P30438 23-52, looked up, fragment)
secondary T cell response of patient 131 [2]: respond

Fel 14-2: TRFP chain 1 amino acids 29-42 (KALPVVLENARILK; UniProt P30438 51-64, looked up, fragment)
T cell response [1, 3]: respond at a similar level or better
T cell response ([1]; patient 386, T cells primed with native TRFP): positively respond
T cell response [1, 4]: respond at a similar level or better
T cell response [1, 7]: positively respond
SI [2, 6]: 4.6

Fel 14-3: TRFP chain 1 amino acids 25-36 (VAQYKALPVVLE; UniProt P30438 47-58, looked up, fragment)
PI [2, 5]: 621
SI [2, 6]: 6.9

Fel 16: TRFP chain 2 amino acids 1-22 (DTMRGALLVLALLVTQALGVKM)
PI [2, 8]: 283
SI [2, 8]: 5.9

Fel 17: TRFP chain 2 amino acids 12-33 (LLVTQALGVKMAETCPIFYDVF)
T cell response [1, 3]: respond at a similar level or better
T cell response ([1]; patient 519, cells primed with peptide YXZ): positive responses
T cell response [1, 4]: respond at a similar level or better
T cell response [1, 7]: positively respond

Fel 32-3: TRFP chain 2 amino acids 16-24 (QALGVKMAE)
PI [2, 8]: 270
SI [2, 8]: 3.7

Fel 33-1: TRFP chain 2 amino acids 26-36 (CPIFYDVFFAV)
PI [2, 8]: 340
SI [2, 8]: 5.4

Fel 33-2: TRFP chain 2 amino acids 26-38 (CPIFYDVFFAVAN)
PI [2, 8]: 210
SI [2, 8]: 4.2

Fel 33-3: TRFP chain 2 amino acids 26-40 (CPIFYDVFFAVANGN)
PI [2, 8]: 235
SI [2, 8]: 5.0
